From ChEMBL document CHEMBL5104180, “Design, Synthesis, and Evaluation of New Sugar-Substituted Imidazole Derivatives as Selective c-MYC Transcription Repressors Targeting the Promoter G-Quadruplex” (J Med Chem, 2022)
The source made the active and inactive calls. The rule behind the calls is not given here.

Legend:
[1] = system: DHX36/c-MYC G4 quadruplex DNA; experiment: Disruption of DHX36/c-MYC G4 quadruplex DNA (unknown origin) interaction incubated for 1 hrs by ELISA; type: protein assay
[2] = system: Quadruplex DNA; experiment: Inhibition of c-MYC G4 quadruplex DNA in human MDA-MB-231 cells assessed as decrease in c-MYC immunoprecipitation at 1.25 to 5 uM measured after 24 hrs by chromatin immunoprecipitation assay; type: cell-based; conditions: dose 1.25-5 µM
[3] = system: NCM460; experiment: Cytotoxicity against human NCM460 cells measured after 48 hrs; type: toxicity, cell-based; conditions: ncm460, 48 h
[4] = molecular target: Quadruplex DNA; experiment: Binding affinity to c-MYC G4 quadruplex DNA Pu22 (unknown origin) assessed as binding constant by SPR analysis; type: nucleic-acid assay
[5] = Binding affinity to G-rich KRAS DNA (unknown origin) assessed as binding constant by SPR analysis
[6] = Cytotoxicity against human HBL-100 cells assessed as reduction in cell viability measured after 48 hrs by MTT assay; type: toxicity, cell-based
[7] = Toxicity in BALB/c-nu/nu mouse xenografted with human MDA-MB-231 cells assessed as side effects at 2.5 mg/kg, ip measured after 24 hrs; type: organism-based; conditions: in vivo
[8] = molecular target: Quadruplex DNA; experiment: Binding affinity to 5' FAM-labeled c-MYC G4 quadruplex DNA Pu22 (unknown origin) by fluorescence quench assay; type: nucleic-acid assay
[9] = system: MDA-MB-231; experiment: Downregulation of c-MYC expression in human MDA-MB-231 cells measured after 48 hrs by western blot analysis; type: functional, cell-based
[10] = system: MDA-MB-231; experiment: Inhibition of colony formation in human MDA-MB-231 cells at 5 uM assessed as reduction in colony formation incubated for 10 days and subsequent media replacement with compound for every 2 days by crystal violet staining based assay; type: functional; conditions: MDA-MB-231, 240 h, time 10 day
[11] = system: MDA-MB-231; experiment: Anticancer activity against human MDA-MB-231 cells (OFP negative) expressing c-MYC G4 quadruplex DNA assessed as arrest of growth measured after 48 hrs by DAPI staining based orange fluorescent protein assay; type: functional, cell-based
[12] = system: MDA-MB-231; experiment: Antitumor activity against human MDA-MB-231 cells xenografted in BALB/c-nu/nu mouse assessed as tumor growth inhibition at 2.5 mg/kg, ip measured for 24 days; type: functional; conditions: MDA-MB-231, 576 h, time 24 day, read-out: TGI
[13] = system: MDA-MB-231; experiment: Induction of cell cycle arrest in human MDA-MB-231 cells assessed as accumulation at sub G0 phase at 5 uM after 24 hrs by propidium iodide staining based flow cytometric analysis; type: functional
[14] = Toxicity in BALB/c-nu/nu mouse xenografted with human MDA-MB-231 cells assessed as effect on anatomized spleen viscera at 2.5 mg/kg, ip measured after 24 hrs; type: organism-based; conditions: in vivo
[15] = Toxicity in BALB/c-nu/nu mouse xenografted with human MDA-MB-231 cells assessed as effect on anatomized lung viscera at 2.5 mg/kg, ip measured after 24 hrs; type: organism-based; conditions: in vivo
[16] = molecular target: Quadruplex DNA; experiment: Binding affinity to c-MYC G4- quadruplex DNA Pu22 (unknown origin) assessed as binding constant by SPR analysis; type: nucleic-acid assay
[17] = system: MDA-MB-231; experiment: Cytotoxicity against human MDA-MB-231 cells assessed as reduction in cell viability measured after 24 hrs; type: functional, cell-based
[18] = system: MCF7; experiment: Cytotoxicity against human MCF7 cells measured after 48 hrs; type: functional, cell-based
[19] = system: MDA-MB-231; experiment: Antitumor activity against human MDA-MB-231 cells xenografted in BALB/c-nu/nu mouse assessed as decrease in c-MYC expression in tumor tissue; type: functional, cell-based
[20] = system: MDA-MB-231; experiment: Antitumor activity against human MDA-MB-231 cells assessed as reduction in cell invasion measured after 24 hrs using crystal violet staining inverted microscope based transwell assay; type: functional; conditions: MDA-MB-231, 24 h
[21] = system: HepG2; experiment: Cytotoxicity against human HepG2 cells measured after 48 hrs; type: functional, cell-based
[22] = system: MDA-MB-231; experiment: Antitumor activity against human MDA-MB-231 cells xenografted in BALB/c-nu/nu mouse assessed as relative increment ratio at 2.5 mg/kg, ip measured for 24 days; type: functional; conditions: time 24 day
[23] = system: NM23-H2/c-MYC G4 quadruplex DNA; experiment: Disruption of NM23-H2/c-MYC G4 quadruplex DNA (unknown origin) interaction incubated for 1 hrs by ELISA; type: protein assay
[24] = system: SiHa; experiment: Cytotoxicity against human SiHa cells measured after 48 hrs; type: functional, cell-based
[25] = Binding affinity to Hairpin DNA (unknown origin) assessed as binding constant by SPR analysis
[26] = Binding affinity to human G-rich Htg22 DNA assessed as binding constant by SPR analysis
[27] = Toxicity in BALB/c-nu/nu mouse xenografted with human MDA-MB-231 cells assessed as effect on anatomized liver viscera at 2.5 mg/kg, ip measured after 24 hrs; type: organism-based; conditions: in vivo
[28] = system: BLM/c-MYC G4 quadruplex DNA; experiment: Disruption of BLM/c-MYC G4 quadruplex DNA (unknown origin) interaction incubated for 1 hrs by ELISA; type: protein assay
[29] = Binding affinity to G-rich NRAS RNA (unknown origin) assessed as binding constant by SPR analysis
[30] = system: MDA-MB-231; experiment: Cytotoxicity against human MDA-MB-231 cells assessed as reduction in cell viability measured after 48 hrs by MTT assay; type: functional, cell-based; conditions: MDA-MB-231, 48 h
[31] = system: MDA-MB-231; experiment: Induction of apoptosis in human MDA-MB-231 cells assessed as necrosis at 5 uM measured after 24 hrs by AnnexinV/propidium iodide staining based flow cytometry; type: functional, cell-based
[32] = Toxicity in BALB/c-nu/nu mouse xenografted with human MDA-MB-231 cells assessed as effect on anatomized kidney viscera at 2.5 mg/kg, ip measured after 24 hrs; type: organism-based; conditions: in vivo
[33] = system: MDA-MB-231; experiment: Induction of apoptosis in human MDA-MB-231 cells assessed as early apoptosis at 5 uM measured after 24 hrs by AnnexinV/propidium iodide staining based flow cytometry; type: functional, cell-based
[34] = system: MDA-MB-231; experiment: Cytotoxicity against human MDA-MB-231 cells measured after 48 hrs; type: functional, cell-based
[35] = system: MDA-MB-231; experiment: Downregulation of c-MYC mRNA level in human MDA-MB-231 cells measured after 24 hrs by RT-PCR analysis; type: functional, cell-based
[36] = molecular target: Quadruplex DNA; experiment: Binding affinity to 3' FAM-labeled c-MYC G4 quadruplex DNA Pu22 (unknown origin) by fluorescence quench assay; type: nucleic-acid assay
[37] = system: NM23-H2/c-MYC G4 quadruplex DNA (Homo sapiens); experiment: Disruption of NM23-H2/c-MYC G4 quadruplex DNA interaction in MDA-MB-231 cells; type: cell-based
[38] = system: Quadruplex DNA; experiment: Stabilization of c-MYC G4 quadruplex DNA Pu22 (unknown origin) assessed as change in melting temperature at 2 uM by CD spectroscopy; type: nucleic-acid assay
[39] = system: MDA-MB-231; experiment: Inhibition of colony formation in human MDA-MB-231 cells at 0.125 to 5 uM assessed as reduction in colony formation incubated for 10 days and subsequent media replacement with compound for every 2 days by crystal violet staining based assay; type: functional, cell-based; conditions: dose 0.125-5 µM, time 10.0 day
[40] = Binding affinity to G-rich HRAS DNA (unknown origin) assessed as binding constant by SPR analysis
[41] = system: MDA-MB-231; experiment: Induction of cell cycle arrest in human MDA-MB-231 cells assessed as decrease in accumulation at G2/M phase at 5 uM after 24 hrs by propidium iodide staining based flow cytometric analysis; type: functional
[42] = system: Quadruplex DNA; experiment: Inhibition of c-MYC G4 quadruplex DNA in HEK293T cells co-transfected with Renilla and firefly luciferase assessed as decrease in relative luciferase at 2.5 to 5 uM measured after 24 hrs by dual luciferase reporter assay; type: cell-based; conditions: Homo sapiens, dose 2.5-5 µM
[43] = system: HepG2; experiment: Cytotoxicity against human HepG2 cells assessed as reduction in cell viability measured after 48 hrs by MTT assay; type: functional, cell-based; conditions: HepG2, 48 h
[44] = system: HBL-100; experiment: Cytotoxicity against human HBL-100 cells measured after 48 hrs; type: toxicity, cell-based; conditions: hbl-100, 48 h
[45] = molecular target: RNA; experiment: Binding affinity to NRAS RNA mutant (unknown origin) assessed as binding constant by SPR analysis
[46] = Toxicity in BALB/c-nu/nu mouse xenografted with human MDA-MB-231 cells assessed as change in body weight at 2.5 mg/kg, ip; type: organism-based; conditions: in vivo
[47] = system: Quadruplex DNA; experiment: Inhibition of c-MYC G4 quadruplex DNA in HEK293T cells co-transfected with Renilla and firefly luciferase assessed as decrease in relative luciferase measured after 24 hrs by dual luciferase reporter assay; type: cell-based; conditions: Homo sapiens
[48] = Toxicity in BALB/c-nu/nu mouse xenografted with human MDA-MB-231 cells assessed as effect on anatomized heart viscera at 2.5 mg/kg, ip measured after 24 hrs; type: organism-based; conditions: in vivo

Structure (SMILES): CCn1c2ccccc2c2cc(-c3nc(-c4ccc(N5CCN(C)CC5)cc4)c(-c4ccc(N5CCN(C)CC5)cc4)n3-c3ccc(OCCOCCOC4(C)O[C@H]5O[C@H](CO)[C@@H](O)[C@H](O)[C@H]5O4)cc3)ccc21 (single isomer, unassigned)
- IC50 [1]: 7 µM
- inhibition [2]: Active
- Activity [3]: Toxic
- Kd [4]: > 20 µM
- Kd [5]: 16.4 µM
- IC50 at 48 h [6]: > 100 µM
- Activity [7]: Non-Toxic
- Kd [8]: 0.56 µM
- Activity [9]: Active
- inhibition at 5 µM [10]: 100%
- Activity [11]: Active
- inhibition in vivo at 2.5 mg/kg [12]: 87.8%
- inhibition at 5 µM [13]: 20%
- Activity [14]: Non-Toxic
- Activity [15]: Non-Toxic
- Kd [16]: 3.8 µM
- Activity [17]: Active
- Activity [18]: Active
- Activity [19]: Active
- IC50 [20]: 7 µM
- Activity [21]: Active
- Activity [22]: 89.9%
- IC50 [23]: 0.16 µM
- Activity [24]: Active
- Kd [25]: > 20 µM
- Kd [26]: > 20 µM
- Activity [27]: Non-Toxic
- IC50 [28]: 2.3 µM
- Kd [29]: > 20 µM
- IC50 [30]: 3.9 µM
- Activity [31]: Active
- Activity [32]: Non-Toxic
- Activity [33]: Active
- Activity [34]: Active
- Activity [35]: Active
- Kd [36]: 2.94 µM
- Activity [37]: Active
- ΔTm [38]: 20.3 °C
- inhibition [39]: Active
- Kd [40]: > 20 µM
- Activity [41]: Active
- inhibition [42]: Active
- IC50 [43]: 5 µM
- Activity [44]: Toxic
- Kd [45]: > 20 µM
- Activity [46]: Non-Toxic
- Activity [47]: Active
- Activity [48]: Non-Toxic
